Patent US20120283334A1, “Treatment of Viral Infections” (Biocopea, Ltd., priority 2009, published 2012)
Where two headings read alike, the source gives them in different places.

Legend:
TNF-α [1] = assay: TNF-α levels in PBMC under LPS stimulation (ELISA); format: cell-based, human; details: for Percentage TNF-α levels compared to 100% untreated cells under LPS stimulation: PBMC; for concentration of TNF-α in LPS stimulated cells: text summary of Table 2, concentration not stated
Description: 1) Isolation, Culture and Treatment of Peripheral Blood Mononuclear Cells (PBMC) Blood was collected in 6 ml vacutainers (green cap). Blood was processed within 2 h of collection. Materials used: Non-coagulated blood; FCS; RPMI-1640 media supplemented with L-Gln and P/S; PBS; sterile tips and pipettes; Sterile 15 ml Falcon; Sterile V-bottom 96-well plates with lids; Neubauer chamber; Trypan Blue solution; 70% IPA solution; Accuspin-Histopaque tubes (Sigma, A7054) Procedure: • 1. Dilute samples 1:1 in sterile PBS; • 2. Add 30 ml of diluted blood into an Accuspin-Histopaque tube (Sigma, A7054); • 3. Centrifuge at 800 rcf 15min at room temperature (RT); • 4. After centrifugation, the red blood cells will remain at the bottom below the frit. The monocytes (PBMC) will be present on a layer above the frit, with the plasma on top; • 5. Collect the PBMC layer with a pipette into a fresh 15 ml Falcon tube and top up to 15 ml of PBS; • 6. Centrifuge at 250 rcf 10 min at RT; • 7. Discard the supernatant, flick the pellet and add another 10 ml of PBS; • 8. Centrifuge at 250 rcf 10 min at RT; • 9. Repeat steps 7 and 8; • 10. […] Count cells and make a 4×10^6 cell/ml suspension in complete medium. Add 100 μl of cell suspension per well in a V-bottom 96-well plate. Then add 50 μl of stimulant or vehicle in complete media, and 50 μl of drug or vehicle in complete media. Incubate the cells for 24 h at 37° C. 5% CO2; • 12. After incubation, take 60 μl of cell supernatant to measure IFNγ and TNFα by ELISA (OptEIA human IFNγ, cat No. 555142 and human TNF, Cat No. 555212) following manufacturer's instructions (BD Biosciences); The two mitogens that the inventors used to stimulate lymphocytes, and therefore assess immune function, were lipopolysaccharide (LPS) and Concanavalin A (Con A). LPS acts on B cells but not T cells, whereas Con A acts on T cells but not B cells. The effects of two embodiments of the compound represented by formula I, i.e. dobutamine (referred to in the tables as BC1021) and ritodrine (BC1023), on the levels of IFN-γ and TNF-α were investigated in LPS and Con A stimulated assays. Peripheral Blood Mononuclear Cells (PMBC) were independently administered with each mitogen, LPS or Con A, and then treated with either dobutamine or ritodrine. Control experiments were conducted in which no LPS or Con A was added, such that any effect on the levels of IFN-γ and TNF-α could be directly attributed to the presence of the test compound, dobutamine or ritodrine. The values in the Tables are expressed as the percentage value of the LPS only control. […] Standard deviation values (s.d.) are given underneath each value of expressed IFN-γ levels.

TNF-α [2] = assay: TNF-α levels in PBMC under Con A stimulation (ELISA); format: cell-based, human; details: for Percentage TNF-α levels compared to 100% untreated cells under Con A stimulation: PBMC; for concentration of TNF-α in Con A stimulated cells: text summary of Table 3, concentration not stated
Description: (§1) 1) Isolation, Culture and Treatment of Peripheral Blood Mononuclear Cells (PBMC) Blood was collected in 6 ml vacutainers (green cap). Blood was processed within 2 h of collection. Materials used: Non-coagulated blood; FCS; RPMI-1640 media supplemented with L-Gln and P/S; PBS; sterile tips and pipettes; Sterile 15 ml Falcon; Sterile V-bottom 96-well plates with lids; Neubauer chamber; Trypan Blue solution; 70% IPA solution; Accuspin-Histopaque tubes (Sigma, A7054) Procedure: • 1. Dilute samples 1:1 in sterile PBS; • 2. Add 30 ml of diluted blood into an Accuspin-Histopaque tube (Sigma, A7054); • 3. Centrifuge at 800 rcf 15min at room temperature (RT); • 4. After centrifugation, the red blood cells will remain at the bottom below the frit. The monocytes (PBMC) will be present on a layer above the frit, with the plasma on top; • 5. Collect the PBMC layer with a pipette into a fresh 15 ml Falcon tube and top up to 15 ml of PBS; • 6. Centrifuge at 250 rcf 10 min at RT; • 7. Discard the supernatant, flick the pellet and add another 10 ml of PBS; • 8. Centrifuge at 250 rcf 10 min at RT; • 9. Repeat steps 7 and 8; • 10. […] Count cells and make a 4×10^6 cell/ml suspension in complete medium. Add 100 μl of cell suspension per well in a V-bottom 96-well plate. Then add 50 μl of stimulant or vehicle in complete media, and 50 μl of drug or vehicle in complete media. Incubate the cells for 24 h at 37° C. 5% CO2; • 12. After incubation, take 60 μl of cell supernatant to measure IFNγ and TNFα by ELISA (OptEIA human IFNγ, cat No. 555142 and human TNF, Cat No. 555212) following manufacturer's instructions (BD Biosciences); The two mitogens that the inventors used to stimulate lymphocytes, and therefore assess immune function, were lipopolysaccharide (LPS) and Concanavalin A (Con A). LPS acts on B cells but not T cells, whereas Con A acts on T cells but not B cells. The effects of two embodiments of the compound represented by formula I, i.e. dobutamine (referred to in the tables as BC1021) and ritodrine (BC1023), on the levels of IFN-γ and TNF-α were investigated in LPS and Con A stimulated assays. Peripheral Blood Mononuclear Cells (PMBC) were independently administered with each mitogen, LPS or Con A, and then treated with either dobutamine or ritodrine. Control experiments were conducted in which no LPS or Con A was added, such that any effect on the levels of IFN-γ and TNF-α could be directly attributed to the presence of the test compound, dobutamine or ritodrine.

IFN-γ = IFN-γ levels in PBMC under Con A stimulation (ELISA); format: cell-based, human; details: for Percentage IFN-γ levels compared to 100% untreated cells under Con A stimulation: PBMC; for concentration of IFN-γ in Con A stimulated cells: text summary of Table 4, concentration not stated
Description: as §1

Con A-stimulated cells = assay: Cell cytotoxicity compared to digitonin under Con A stimulation
Excerpt: Digitonin is a glycoside obtained from Digitalis purpurea, which acts as a detergent, and effectively water-solubilizes lipids in the plasma membrane. Therefore, digitonin can be used to permeabilise cell membranes. The inventors therefore investigated digitonin's cell membrane-permeabilising effects on Con A-stimulated cells to determine the cytotoxic effects of ritodrine or dobutamine.

[3] = compound only (no Con A), 10 μM
[4] = compound only (no Con A), 100 μM

CC(CCc1ccc(O)cc1)NCCc1ccc(O)c(O)c1 (stereo not drawn) [BC1021, dobutamine]
Percentage TNF-α levels compared to 100% untreated cells under LPS stimulation (TNF-α [1]; + LPS, compound 1 μM, 24 h): 91.20% | Percentage TNF-α levels compared to 100% untreated cells under LPS stimulation (TNF-α [1]; + LPS, compound 10 μM, 24 h): 84.79% | Percentage TNF-α levels compared to 100% untreated cells under LPS stimulation (TNF-α [1]; + LPS, compound 100 μM, 24 h): 81.41% | Percentage TNF-α levels compared to 100% untreated cells under LPS stimulation (TNF-α [1]; compound only (no LPS), 1 μM): −80.18% | Percentage TNF-α levels compared to 100% untreated cells under LPS stimulation (TNF-α [1]; compound only (no LPS), 10 μM): −145.07% | Percentage TNF-α levels compared to 100% untreated cells under LPS stimulation (TNF-α [1]; compound only (no LPS), 100 μM): −151.15% | concentration of TNF-α in LPS stimulated cells (TNF-α [1]): decreased | Percentage TNF-α levels compared to 100% untreated cells under Con A stimulation (TNF-α [2]; + Con A, compound 1 μM, 24 h): 103.05% | Percentage TNF-α levels compared to 100% untreated cells under Con A stimulation (TNF-α [2]; + Con A, compound 10 μM, 24 h): 102.36% | Percentage TNF-α levels compared to 100% untreated cells under Con A stimulation (TNF-α [2]; + Con A, compound 100 μM, 24 h): −33.95% | Percentage TNF-α levels compared to 100% untreated cells under Con A stimulation (TNF-α [2]; compound only (no Con A), 1 μM): −35.44% | Percentage TNF-α levels compared to 100% untreated cells under Con A stimulation (TNF-α [2]; [3]): −33.21% | Percentage TNF-α levels compared to 100% untreated cells under Con A stimulation (TNF-α [2]; [4]): −42.84% | concentration of TNF-α in Con A stimulated cells (TNF-α [2]): decreased | Percentage IFN-γ levels compared to 100% untreated cells under Con A stimulation (IFN-γ; + Con A, compound 1 μM, 24 h): 63.40% | Percentage IFN-γ levels compared to 100% untreated cells under Con A stimulation (IFN-γ; + Con A, compound 10 μM, 24 h): 32.77% | Percentage IFN-γ levels compared to 100% untreated cells under Con A stimulation (IFN-γ; + Con A, compound 100 μM, 24 h): −1.80% | Percentage IFN-γ levels compared to 100% untreated cells under Con A stimulation (IFN-γ; + Con A, compound 100 μM, 24 h, listed as dobutamine): significant effect in decreasing | Percentage IFN-γ levels compared to 100% untreated cells under Con A stimulation (IFN-γ; compound only (no Con A), 1 μM): −2.61% | Percentage IFN-γ levels compared to 100% untreated cells under Con A stimulation (IFN-γ; [3]): −2.51% | Percentage IFN-γ levels compared to 100% untreated cells under Con A stimulation (IFN-γ; [4]): −3.26% | concentration of IFN-γ in Con A stimulated cells (IFN-γ): decreased | Percentage cytotoxicity compared to 100% for digitonin under Con A stimulation (Con A-stimulated cells; compound only (no Con A), 1 μM): 47.71% | Percentage cytotoxicity compared to 100% for digitonin under Con A stimulation (Con A-stimulated cells; [3]): 42.94% | Percentage cytotoxicity compared to 100% for digitonin under Con A stimulation (Con A-stimulated cells; [4]): 32.33% | cytotoxicity rates in treated samples (Con A-stimulated cells; text summary of Table 6, vast majority of cases): lower

CC(NCCc1ccc(O)cc1)C(O)c1ccc(O)cc1 (stereo not drawn) [BC1023, ritodrine]
Percentage TNF-α levels compared to 100% untreated cells under LPS stimulation (TNF-α [1]; + LPS, compound 1 μM, 24 h): 62.12% | Percentage TNF-α levels compared to 100% untreated cells under LPS stimulation (TNF-α [1]; + LPS, compound 10 μM, 24 h): 85.01% | Percentage TNF-α levels compared to 100% untreated cells under LPS stimulation (TNF-α [1]; + LPS, compound 100 μM, 24 h): 85.74% | Percentage TNF-α levels compared to 100% untreated cells under LPS stimulation (TNF-α [1]; compound only (no LPS), 1 μM): −29.75% | Percentage TNF-α levels compared to 100% untreated cells under LPS stimulation (TNF-α [1]; compound only (no LPS), 10 μM): 0.74% | Percentage TNF-α levels compared to 100% untreated cells under LPS stimulation (TNF-α [1]; compound only (no LPS), 100 μM): −56.57% | concentration of TNF-α in LPS stimulated cells (TNF-α [1]): decreased | Percentage TNF-α levels compared to 100% untreated cells under Con A stimulation (TNF-α [2]; + Con A, compound 1 μM, 24 h): 103.92% | Percentage TNF-α levels compared to 100% untreated cells under Con A stimulation (TNF-α [2]; + Con A, compound 10 μM, 24 h): 106.20% | Percentage TNF-α levels compared to 100% untreated cells under Con A stimulation (TNF-α [2]; + Con A, compound 100 μM, 24 h): 104.93% | Percentage TNF-α levels compared to 100% untreated cells under Con A stimulation (TNF-α [2]; compound only (no Con A), 1 μM): −5.94% | Percentage TNF-α levels compared to 100% untreated cells under Con A stimulation (TNF-α [2]; [3]): −24.69% | Percentage TNF-α levels compared to 100% untreated cells under Con A stimulation (TNF-α [2]; [4]): −14.80% | concentration of TNF-α in Con A stimulated cells (TNF-α [2]): decreased | Percentage IFN-γ levels compared to 100% untreated cells under Con A stimulation (IFN-γ; + Con A, compound 1 μM, 24 h): 39.93% | Percentage IFN-γ levels compared to 100% untreated cells under Con A stimulation (IFN-γ; + Con A, compound 10 μM, 24 h): 34.25% | Percentage IFN-γ levels compared to 100% untreated cells under Con A stimulation (IFN-γ; + Con A, compound 100 μM, 24 h): 41.69% | Percentage IFN-γ levels compared to 100% untreated cells under Con A stimulation (IFN-γ; compound only (no Con A), 1 μM): −0.86% | Percentage IFN-γ levels compared to 100% untreated cells under Con A stimulation (IFN-γ; [3]): −1.52% | Percentage IFN-γ levels compared to 100% untreated cells under Con A stimulation (IFN-γ; [4]): −1.87% | concentration of IFN-γ in Con A stimulated cells (IFN-γ): decreased | cytotoxicity rates in treated samples (Con A-stimulated cells): lower | Percentage cytotoxicity compared to 100% for digitonin under Con A stimulation (Con A-stimulated cells; human, 1 μM): 44.54% | Percentage cytotoxicity compared to 100% for digitonin under Con A stimulation (Con A-stimulated cells; human, 10 μM): 43.63% | Percentage cytotoxicity compared to 100% for digitonin under Con A stimulation (Con A-stimulated cells; human, 100 μM): 43.81%
